Results published in publication PMC12282101, “Heat shock protein 90 chaperone activity is required for hepatitis A virus replication” (Journal of Virology, 2025).
Where a name gives a salt, the structure may show the parent alone.

Columns and labels:
Huh-7.5.1 cells = assay: Cell viability in the chemical screen (Cell TiterGlo); conditions: 10 µM compound, 72 h
18f-NLuc reporter virus = assay: microbe, parasite or virus in culture; type: cell-based, Hepatitis A virus; conditions: for activity at 10 µM: Hepatovirus A, Huh-7.5.1, 72 h, read-out: Normalized HAV production

Row | SMILES | Viability Percent DMSO (Huh-7.5.1 cells) | activity at 10 µM (18f-NLuc reporter virus) | Normalized HAV production (18f-NLuc reporter virus)
1 | Cc1cc(O)cc(C)c1Cl [Chloroxylenol] | 108 Percent DMSO | 90% | 
2 | Cc1cn([C@H]2C[C@H](N=[N+]=[N-])[C@@H](CO)O2)c(=O)[nH]c1=O [Zidovudine] | 92 Percent DMSO | 131% | 
3 | C[C@H]1CC[C@@]2(O)C(C)(C)[C@@H]3CC[C@@]2(C)[C@H]1C3 [Patchouli alcohol] | 122 Percent DMSO |  | 1.10
4 | Oc1ccc(Cl)c2cccnc12 [Dermofongin] | 101 Percent DMSO |  | 0.98
5 | Nc1nc2c(ncn2CCC(CO)CO)c(=O)[nH]1 [Penciclovir] | 96 Percent DMSO | 111% | 
6 | Cc1cccc(C)c1N(CC(=O)Nc1ccc(-c2ncon2)cc1)C(=O)C1CCS(=O)(=O)CC1 [Amenamevir] | 116 Percent DMSO | 109% | 
7 | CC1(C)S[C@@H]2[C@H](NC(=O)[C@H](N)c3ccccc3)C(=O)N2[C@H]1C(=O)O [Ampicillin Trihydrate] | 116 Percent DMSO | 76% | 
8 | C[C@H](Cn1cnc2c(N)ncnc21)OCP(=O)(O)O [Tenofovir] | 118 Percent DMSO | 128% | 
9 | O[C@H]1[C@H](O)[C@@H](O)[C@H](O)[C@@H](O)[C@H]1O [Inositol] | 93 Percent DMSO | 122% | 
10 | CCCCCCCCCC(=O)O[C@H]1CC[C@H]2[C@@H]3CCC4=CC(=O)CC[C@@H]4[C@H]3CC[C@]12C [Nandrolone decanoate] | 113 Percent DMSO | 117% | 
11 | C=C1[C@H](CO)[C@@H](O)C[C@@H]1n1cnc2c(=O)[nH]c(N)nc21 [Entecavir hydrate] | 125 Percent DMSO | 93% | 
12 | O=C(Nc1ncc([N+](=O)[O-])s1)c1ccccc1O [Tizoxanide] | 72 Percent DMSO | 113% | 
13 | COc1cc(NC(=O)Nc2cccc(CNC(=O)O[C@H]3CCOC3)c2)ccc1-c1cnco1 [Merimepodib] | 159 Percent DMSO | 34% | 
14 | CN(C)[C@@H]1C(O)=C(C(N)=O)C(=O)[C@@]2(O)C(O)=C3C(=O)c4c(O)cccc4[C@@](C)(O)[C@H]3C[C@@H]12 [Tetracycline] | 114 Percent DMSO | 89% | 
15 | CCS(=O)(=O)CCn1c([N+](=O)[O-])cnc1C [Tinidazole] | 108 Percent DMSO | 78% | 
16 | O=c1c2ccccc2[se]n1-c1ccccc1 [Ebselen] | 123 Percent DMSO | 56% | 
17 | O=C1c2cccc(O)c2C(=O)c2c(O)cc(CO)cc21 [Aloe-emodin] | 90 Percent DMSO | 118% | 
18 | CC(C)[C@H](N)C(=O)OCCOCn1cnc2c(=O)[nH]c(N)nc21 [Valacyclovir hydrochloride] | 117 Percent DMSO | 87% | 
19 | O=C(Nc1ccccc1)c1ccccc1O [Salicylanilide] | 120 Percent DMSO | 76% | 
20 | Nc1nc2c(ncn2COCCO)c(=O)[nH]1 [Aciclovir] | 110 Percent DMSO | 99% | 

Row | SMILES | Viability Percent DMSO (Huh-7.5.1 cells) | activity at 10 µM (18f-NLuc reporter virus) | Normalized HAV production (18f-NLuc reporter virus)
21 | CC(C)CN(C[C@@H](O)[C@H](Cc1ccccc1)NC(=O)O[C@H]1CCOC1)S(=O)(=O)c1ccc(N)cc1 [Amprenavir] | 121 Percent DMSO | 91% | 
22 | CC(N)C12CC3CC(CC(C3)C1)C2 (centres unmarked) [Rimantadine hydrochloride] | 98 Percent DMSO | 113% | 
23 | C[C@@H]1CC[C@H]2[C@@H](C)C(=O)O[C@@H]3O[C@@]4(C)CC[C@@H]1[C@]32OO4 [Artemisinin] | 101 Percent DMSO | 76% | 
24 | C=C(C)[C@@H]1CC[C@]2(CO)CC[C@]3(C)[C@H](CC[C@@H]4[C@@]5(C)CC[C@H](O)C(C)(C)[C@@H]5CC[C@]43C)[C@@H]12 [Betulin] | 123 Percent DMSO | 119% | 
25 | CC(=O)N(CC(O)CO)c1c(I)c(C(=O)NCC(O)CO)c(I)c(C(=O)NCC(O)CO)c1I (centres unmarked) [Iohexol] | 74 Percent DMSO | 157% | 
26 | CCC[C@H](NC(=O)[C@@H]1[C@H]2CCC[C@H]2CN1C(=O)[C@@H](NC(=O)[C@@H](NC(=O)c1cnccn1)C1CCCCC1)C(C)(C)C)C(=O)C(=O)NC1CC1 [Telaprevir] | 119 Percent DMSO | 73% | 
27 | Nc1ccn([C@@H]2CS[C@H](CO)O2)c(=O)n1 [Lamivudine] | 120 Percent DMSO | 86% | 
28 | O=C(/C=C/c1ccc(O)cc1)c1ccc(O)cc1O [Isoliquiritigenin] | 100 Percent DMSO | 104% | 
29 | C=C1CC[C@@H]2[C@](C)(CO)[C@H](O)CC[C@@]2(C)[C@@H]1C/C=C1/C(=O)OC[C@H]1O [Andrographolide] | 106 Percent DMSO | 86% | 
30 | COc1ncnc(NS(=O)(=O)c2ccc(N)cc2)c1OC [Sulfadoxine] | 118 Percent DMSO | 69% | 
31 | COc1ccc(C2CNC(=O)C2)cc1OC1CCCC1 (centres unmarked) [Rolipram] | 113 Percent DMSO | 130% | 
32 | C[C@H]1CO[C@@H]2Cn3cc(C(=O)NCc4ccc(F)cc4F)c(=O)c(O)c3C(=O)N12 [Cabotegravir] | 170 Percent DMSO | 49% | 
33 | COc1cnc(-n2cnc(C)n2)c2c1c(C(=O)C(=O)N1CCN(C(=O)c3ccccc3)CC1)cn2COP(=O)(O)O [Fostemsavir] | 129 Percent DMSO | 92% | 
34 | Clc1ccc(Cn2c(CN3CCCC3)nc3ccccc32)cc1 [Clemizole] | 166 Percent DMSO | 58% | 
35 | Cc1nc(Nc2ccc(F)cc2)nc(N2CCc3ccccc3C2C)c1C (centres unmarked) [Revaprazan hydrochloride] | 115 Percent DMSO | 87% | 
36 | CCOC(=O)c1ccc(OCCC2CCN(c3ccc(C)nn3)CC2)cc1 [Pirodavir] | 134 Percent DMSO | 91% | 
37 | CN[C@@H]1[C@H](O)[C@H](NC)[C@H]2O[C@@]3(O)C(=O)C[C@@H](C)O[C@H]3O[C@@H]2[C@H]1O.Cl.Cl [Spectinomycin dihydrochloride] | 109 Percent DMSO |  | 0.83
38 | CO[C@H]1/C=C/O[C@@]2(C)Oc3c(C)c(O)c4c(O)c(c(/C=N/N5CCN(C)CC5)c(O)c4c3C2=O)NC(=O)/C(C)=C\C=C\[C@H](C)[C@H](O)[C@@H](C)[C@@H](O)[C@@H](C)[C@H](OC(C)=O)[C@@H]1C [Rifampicin] | 119 Percent DMSO | 86% | 
39 | Cc1cnc(C(=O)N[C@H]2CCCCC/C=C\[C@@H]3C[C@@]3(C(=O)NS(=O)(=O)C3CC3)NC(=O)[C@@H]3C[C@@H](Oc4nc5ccccc5c5ccccc45)CN3C2=O)cn1 [Paritaprevir] | 91 Percent DMSO | 64% | 
40 | COc1cc2c(cc1Cc1cccc(Cl)c1F)c(=O)c(C(=O)O)cn2[C@H](CO)C(C)C [Elvitegravir] | 118 Percent DMSO | 95% | 
